Experimental data published in US10624875B2, “Methods and compositions for treating schizophrenia” (The Johns Hopkins University, priority 2012, dated 2020).

Assays:
Assay type in all cases: in vivo, human
[1] = system: aMCI subjects; assay: Benton Visual Retention Test; conditions: 125 mg twice a day for two weeks
Procedure: (§1) A within-subjects trial of 8 weeks duration, involving 17 amnestic MCI (aMCI) subjects and 17 age-matched controls with a low dose treatment of levetiracetam is conducted. During the course of the study, each aMCI subject receives both drug and placebo treatments separately in two periods of two weeks each, with the order of treatments among different aMCI subjects counterbalanced (see FIG. 7). Age-matched control subjects treated with placebo serve as a further control. Cognitive testing and fMRI imaging data are obtained from the subjects after each two week period of drug/placebo treatment.
(§2) All participants undergo neuropsychological evaluation at the time of assessment for treatment efficacy (Visits 1 and 2), as well as at the Baseline Visit. […]
(§3) As described above, the drug treatment period is the two weeks preceding Visit 1 or 2 (with the two week period preceding the other Visit being the placebo phase). For the subjects receiving the drug treatment, half a scored 250 mg tablet of levetiracetam is used to achieve a dose of […], which is approximately 3.6 mg/kg/day (assuming an average adult human weight of 70 kg).

[2] = system: aMCI subjects; assay: Buschke Selective Reminding Test - Delayed Recall; conditions: 125 mg twice a day for two weeks
Procedure: as §1
All participants undergo neuropsychological evaluation at the time of assessment for treatment efficacy (Visits 1 and 2), as well as at the Baseline Visit. The evaluation occurs outside of the scanner and includes the Buschke Selective Reminding Test (Buschke and Fuld, 1974) and the Verbal Paired Associates subtest, the Logical Memory subtest, the Visual Reproduction subtest of the Wechsler Memory Scale-Revised (WMS-R) (Wechsler, 1997), and the Benton Visual Retention Test, as these tasks are particularly sensitive to medial temporal lobe function and early memory problems (Marquis et al., 2002 and Masur et al., 1994). […]

[3] = system: entorhinal cortex (EC); assay: fMRI activity during explicit 3-alternative forced choice task, entorhinal cortex; conditions: aMCI subjects, 125 mg twice a day for two weeks, versus placebo
Procedure: A within-subjects trial of 8 weeks duration, involving 17 amnestic MCI (aMCI) subjects and 17 age-matched controls with a low dose treatment of levetiracetam is conducted. During the course of the study, each aMCI subject receives both drug and placebo treatments separately in two periods of two weeks each, with the order of treatments among different aMCI subjects counterbalanced (see FIG. 7). Age-matched control subjects treated with placebo serve as a further control. Cognitive testing and fMRI imaging data are obtained from the subjects after each two week period of drug/placebo treatment. As described above, the drug treatment period is the two weeks preceding Visit 1 or 2 (with the two week period preceding the other Visit being the placebo phase). […] Imaging data are obtained through high-resolution methods developed in the Stark laboratory. Data are collected on a Phillips 3 Tesla scanner (Eindhoven, The Netherlands) equipped with an 8-channel SENSE (Sensitivity Encoding) head coil, located at the F.M. Kirby Research Center for Functional Brain Imaging at the Kennedy Krieger Institute (Baltimore, Md.). […] Group data are analyzed using a two-way Analysis of Variance (ANOVA) with trial types and group as fixed factors, and subject as a random factor nested within group. […]

[4] = system: aMCI subjects; assay: Verbal Paired Associates Test - Recognition; conditions: 125 mg twice a day for two weeks
Procedure: as §1, §2, §3

## CC[C@@H](C(N)=O)N1CCCC1=O [levetiracetam, (2S)-2-(2-oxopyrrolidin-1-yl) butanamide]
[1]
  performance in Benton Visual Retention Test: fail to rescue performance
[2]
  performance in Buschke Selective Reminding Test - Delayed Recall: fail to rescue performance
[3]
  EC activity during memory judgments: increases EC activity
[4]
  performance in Verbal Paired Associates Test - Recognition: fail to rescue performance
